Test results taken from PMC10648349, “Aromatic Diboronic Acids as Effective KPC/AmpC Inhibitors” (Molecules, 2023).
Converted amounts (≈) assume the structure as drawn.

Tests used:
E. coli 77 CMY-2(+) [1] = test: screening test of direct antimicrobial activity (STDA), disc-diffusion; type: cell-based; settings: Escherichia coli; 0.3 mg per disc; - no zone; read-out: Diameter of inhibition zone around disc with tested agent
Procedure: (§1) Prior to combination disc tests, screening tests of direct antimicrobial activity (STDA) of the tested agent against β-lactamase-producing strains were performed by the disc-diffusion method. Discs with 0.3 mg, 0.1 mg, and 0.03 mg of each agent were examined. The highest amount of an agent that caused no effect on bacterial growth was used in further experiments.

[2] = tested on: K. pneumoniae ATCC 700603 ESBL(+); test: as above; type: cell-based; settings: Klebsiella pneumoniae, ATCC700603; 0.3 mg per disc; - no zone; read-out: Diameter of inhibition zone around disc with tested agent
Procedure: as §1

[3] = tested on: P. aeruginosa MUW 700 AmpC(+); test: as above; type: cell-based; settings: Pseudomonas aeruginosa; 0.3 mg per disc; - no zone; read-out: Diameter of inhibition zone around disc with tested agent
Procedure: as §1

[4] = tested on: K. pneumoniae ATCC BAA 1705 KPC(+); test: as above; type: cell-based; settings: Klebsiella pneumoniae, BAA1705; 0.3 mg per disc; - no zone; read-out: Diameter of inhibition zone around disc with tested agent
Procedure: as §1

C. krusei ATCC 6258 = test: antifungal activity (disc-diffusion, MIC, MFC); type: cell-based, Candida krusei; settings: Pichia kudriavzevii, ATCC6258; for MIC: fluconazole by Etest
In short: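 Susceptibility endpoints: inhibition zones (0.4 mg per disc), MIC, MBC for bacteria, MFC for yeasts. Compounds were solubilised in DMSO; nitrofurantoin, linezolid or fluconazole served as comparators per organism type.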

[5] = tested on: K. pneumoniae ATCC BAA-1705 KPC-2-positive; test: checkerboard microdilution, antibiotic plus tested agent; type: cell-based, Klebsiella pneumoniae
In short: (§2)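 Read-out is the antibiotic MIC with agent present, plus FICI = combined/alone MIC ratios summed for both partners. Meropenem pairs served for carbapenemase strains and ceftazidime pairs for the AmpC strain. Agent or PBA was tested at 4–16 mg/L.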

[6] = tested on: K. pneumoniae 83 KPC-3-positive, CTX-M-3-positive; test: as above; type: cell-based, Klebsiella pneumoniae
In short: as §2

[7] = tested on: K. pneumoniae 81 KPC-3-positive; test: as above; type: cell-based, Klebsiella pneumoniae
In short: as §2

[8] = tested on: P. aeruginosa MUW 700 cAmpC-positive; test: as above; type: cell-based, Pseudomonas aeruginosa
In short: as §2

[9] = tested on: E. coli 76 KPC-2-positive; test: as above; type: cell-based, Escherichia coli
In short: as §2

[10] = tested on: K. pneumoniae 81 KPC-3(+); test: MIC of tested agent alone, microdilution; type: cell-based; settings: Klebsiella pneumoniae; read-out: MIC of agent alone
In short: (§3)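 Two-fold checkerboard dilutions pair β-lactams (1–64 mg/L) with tested agents (4–16 mg/L); agent MICs alone come from parallel microdilution.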

[11] = tested on: K. pneumoniae ATCC BAA-1705 KPC-2(+); test: MIC of tested agent alone, microdilution; type: cell-based; settings: Klebsiella pneumoniae, ATCCBAA1705; read-out: MIC of agent alone
In short: as §3

E. coli 77 CMY-2(+) [12] = test: MIC of tested agent alone, microdilution; type: cell-based; settings: Escherichia coli; read-out: MIC of agent alone
In short: as §3

[13] = tested on: K. pneumoniae 83 KPC-3(+), CTX-M-3(+); test: MIC of tested agent alone, microdilution; type: cell-based; settings: Klebsiella pneumoniae; read-out: MIC of agent alone
In short: as §3

E. coli 76 KPC-2(+) = test: MIC of tested agent alone, microdilution; type: cell-based; settings: Escherichia coli; read-out: MIC of agent alone
In short: as §3

[14] = tested on: P. aeruginosa MUW 700 AmpC(+); test: MIC of tested agent alone, microdilution; type: cell-based; settings: Pseudomonas aeruginosa; read-out: MIC of agent alone
In short: as §3

Row | Structure (SMILES) | zone of inhibition at 300 µg/disc (E. coli 77 CMY-2(+) [1]) | zone of inhibition at 300 µg/disc [2] | zone of inhibition at 300 µg/disc [3] | zone of inhibition at 300 µg/disc [4] | MIC (C. krusei ATCC 6258) | Average FICI with ERT [5] | Average FICI with IMI [5] | Average FICI with MEM [5] | The lowest FICI with ERT [5] | The lowest FICI with IMI [5] | The lowest FICI with MEM [5] | Average FICI with ERT [6] | Average FICI with IMI [6] | Average FICI with MEM [6] | The lowest FICI with ERT [6] | The lowest FICI with IMI [6] | The lowest FICI with MEM [6] | Average FICI with ERT [7] | Average FICI with IMI [7] | Average FICI with MEM [7] | further results
1 | OB(O)c1cc(F)c(B(O)O)c(F)c1 [1d] | 13 mm | 14 mm | 12 mm | 15 mm | 200 µg/mL (≈ 991 µM) | 0.86 | 0.69 | 0.44 | 0.54 | 0.52 | 0.29 | 0.69 | 0.52 | 0.61 | 0.52 | 0.51 | 0.29 | 0.40 | 0.36 | 0.29 | The lowest FICI with ERT [7]: 0.17; The lowest FICI with IMI [7]: 0.27; The lowest FICI with MEM [7]: 0.10; Average FICI with ceftazidime [8]: 0.43; Interpretation of the average FICI with ceftazidime [8]: S (FICI ≤ 0.5, synergy); Interpretation of the lowest FICI with ceftazidime [8]: S (FICI ≤ 0.5, synergy); The lowest FICI with ceftazidime [8]: 0.27; Average FICI with ERT [9]: 0.36; Average FICI with IMI [9]: 0.44; Average FICI with MEM [9]: 0.44; The lowest FICI with ERT [9]: 0.27; The lowest FICI with IMI [9]: 0.29; The lowest FICI with MEM [9]: 0.29; MIC [10]: 400 µg/mL; MIC [11]: 400 µg/mL; MIC (E. coli 77 CMY-2(+) [12]): 400 µg/mL; MIC [13]: 400 µg/mL; MIC (E. coli 76 KPC-2(+)): 400 µg/mL; MIC [14]: > 400 µg/mL
2 | OB(O)c1ccc(B(O)O)c(F)c1 [1b] | 12 mm | 12 mm | 12 mm | 13 mm | 100 µg/mL (≈ 544 µM) | 0.51 | 0.43 | 0.43 | 0.51 | 0.27 | 0.27 | 0.43 | 0.43 | 0.60 | 0.27 | 0.27 | 0.27 | 0.43 | 0.35 | 0.28 | zone of inhibition at 0.4 mg/disc (C. krusei ATCC 6258; 0.4 mg per disc, 9 mm disc (fluconazole 0.025 mg, 6 mm disc), - no zone, read-out: Diameter of inhibition zone): 22 mm; The lowest FICI with ERT [7]: 0.27; The lowest FICI with IMI [7]: 0.26; The lowest FICI with MEM [7]: 0.08; Average FICI with ceftazidime [8]: 0.18; Interpretation of the average FICI with ceftazidime [8]: S (FICI ≤ 0.5, synergy); Interpretation of the lowest FICI with ceftazidime [8]: S (FICI ≤ 0.5, synergy); The lowest FICI with ceftazidime [8]: 0.14; Average FICI with ERT [9]: 0.32; Average FICI with IMI [9]: 0.32; Average FICI with MEM [9]: 0.36; The lowest FICI with ERT [9]: 0.17; The lowest FICI with IMI [9]: 0.17; The lowest FICI with MEM [9]: 0.27; MIC [10]: > 400 µg/mL; MIC [11]: > 400 µg/mL; MIC (E. coli 77 CMY-2(+) [12]): 400 µg/mL; MIC [13]: > 400 µg/mL; MIC (E. coli 76 KPC-2(+)): 400 µg/mL; MIC [14]: > 400 µg/mL
